The results in this text go back to EP0082498A2, “Beta-lactam compounds and process for the preparation thereof” (SAGAMI CHEMICAL RESEARCH CENTER, priority 1981, dated 1983).

Values after ≈ are worked out from the molar mass of the structure shown. Counter-ions that a name gives are not always drawn. Like-named read-outs stand apart in the source and are kept apart here. Some results are limits rather than exact numbers.

Holding throughout (assay): Antibacterial activity, minimum inhibition concentration (MIC)
What all share (format): cell-based

Assay [1] deals with Staphylococcus aureus FDA 209 PJC-1. The conditions noted are these: FDA209, Table 2. The protocol:
(§1) Antibacterial activities of the compounds according to this invention, which had been prepared in the preceding Examples, were measured according to the method prescribed by The Committee of Amendment of "The method for measurement of the minimum inhibition concentration", The Chemotherapy Association, Japan (See Chemotherapy, Vol. 29, No. 1, pp. 76 ~ 79 (1981)).
(§2) The test results are shown in terms of the minimum inhibition concentration (MIC) (unit: µg/mℓ) in the following Tables 1 to 4.

The test system of assay [2] is Escherichia coli NIHJ-JC-2. The conditions noted are these: NIHJJC2, Table 2. The protocol:
as §1, §2

In assay [3] the test system is Pseudomonas aeruginosa NCTC 10490. The conditions noted are these: NCTC10490, Table 2. The protocol: as §1, §2
Assay [4] deals with Proteus morganii IFO 3848. The conditions noted are these: for MIC: Morganella morganii. The protocol: as §1, §2
For assay [5], the system named is Salmonella typhimrium 901. The protocol:
as §1, §2

Assay [6] concerns Staphylococcus aureus MS 353. The conditions noted are these: for MIC: Staphylococcus aureus. The protocol: as §1, §2
Assay [7] concerns Salmonella typhimurium IID-971. The conditions noted are these: Table 1, Salmonella typhimurium IID-971; for MIC: Salmonella enterica, read-out: minimum inhibition concentration (MIC). The protocol:
as §1, §2

Where [8] appears, read: IFO3848, Table 2, Proteus morganii IFO-3848, read-out: minimum inhibition concentration (MIC).
Setting [9] is: Table 4, Salmonella typhimrium 901, read-out: minimum inhibition concentration (MIC).
The mark [10] stands for this setting: MS353, Table 4, Staphylococcus aureus MS 353, read-out: minimum inhibition concentration (MIC).
[11] abbreviates: IFO3848, Table 4, Proteus morganii IFO 3848, read-out: minimum inhibition concentration (MIC).
The mark [12] stands for this setting: MS353, Table 1, Staphylococcus aureus MS 353, read-out: minimum inhibition concentration (MIC).
Setting [13] is: IFO3848, Table 1, Proteus morganii IFO 3848, read-out: minimum inhibition concentration (MIC).
Where [14] appears, read: Table 1, Staphylococcus aureus MS 353.
Where [15] appears, read: Table 1, Proteus morganii IFO 3848.

As for `Nc1nc(C(=CBr)C(=O)NC2C(=O)N3C(C(=O)O)=C(CSc4nncs4)CS[C@H]23)cs1` (stereo partly shown) [Example 25, 7-[2-Bromomethylene-2-(2-aminothiazol-4-yl)acetamido]-3-(1,3,4-thiadiazol-2-yl)thiomethyl-3-cephem-4-carboxylic acid], the MIC in assay [1] was 0.2 mg/L (≈ 0.356 µM); in assay [2], 0.1 mg/L (≈ 0.178 µM); in assay [3], 0.2 mg/L (≈ 0.356 µM); in assay [4] (setting [8]), at most 0.0063 mg/L.
Turning to `N#CCn1nnnc1SCC1=C(C(=O)O)N2C(=O)C(NC(=O)C(=CCl)c3csc(N)n3)C2SC1` (single isomer, unassigned) [Example 32, sodiun 7-[2-chloromethylene-2-(2-aminothiazol-4-yl)acetamido]-3-(l-cyanomethyl-l,2,3,4-tetrazol-5-yl)thiomethyl-3-cephem-4-carboxylate], the MIC in assay [5] (setting [9]) came to 0.78 mg/L (≈ 1.44 µM); in assay [6] (setting [10]), 1.56 mg/L (≈ 2.89 µM); in assay [4] (setting [11]) it was 0.0125 mg/L (≈ 0.0231 µM).
For `Nc1nc(C(=CCl)C(=O)NC2C(=O)N3C(C(=O)O)=C(CSc4nnnn4CCO)CSC23)cs1` (single isomer, unassigned) [Example 31], in that order: 0.39 mg/L (≈ 0.716 µM), 0.78 mg/L (≈ 1.43 µM) and at most 0.00625 mg/L.
For `Cn1ncc(=O)nc1SCC1=C(C(=O)O)N2C(=O)C(NC(=O)C(=CCl)c3csc(N)n3)C2SC1` (single isomer, unassigned) [Example 36, sodium 7-[2-chloromethylene-2-(2-aminothiazol-4-yl)acetamido]-3-(2-dihydro-2-methyl-5-oxo-as-triazine-3-yl)thiomethyl-3-cephem-4-carboxylate], in that order: 0.39 mg/L, 0.39 mg/L and at most 0.00625 mg/L.
For the compound `CC1(C)S[C@@H]2C(NC(=O)C(=CCl)c3csc(N)n3)C(=O)N2[C@H]1C(=O)[O-].[Na+]` (single isomer, unassigned) [Example 38, Sodium 6-[2-chloromethylene-2-(2-aminothiazol-4-yl)acetamido]penicillanate], the MIC worked out at 3.12 mg/L in assay [5] (Salmonella, 901, read-out: minimum inhibition concentration (MIC)); 0.2 mg/L in assay [6] (MS353, read-out: minimum inhibition concentration (MIC)); 0.05 mg/L in assay [4] (IFO3848, read-out: minimum inhibition concentration (MIC)).
Take `Nc1nc(C(=CCl)C(=O)NC2C(=O)N3C(C(=O)O)=C(CSc4cnn[nH]4)CSC23)cs1` (single isomer, unassigned) [Example 34, sodium7-[2-chloramethylene-2-(2-aminothiazol-4-yl)acetamido]-3-(l,2,3-triazol-5-yl)thiomethyl-3-cephem-4-carboxylate]: the figures for the MIC in assay [5] (setting [9]), in assay [6] (setting [10]) and in assay [4] (setting [11]) were 0.78 mg/L, 0.78 mg/L and 0.0125 mg/L, respectively.
Turning to `CCSc1nnc(SCC2=C(C(=O)O)N3C(=O)C(NC(=O)C(=CCl)c4csc(N)n4)C3SC2)s1` (single isomer, unassigned) [Example 22, 7-[2-Chloromethylene-2-(2-aminothiazol-4-yl)acetamido]-3-(2-ethylthio-l,3,4-thiadiazol-5-yl)thiomethyl-3-cephem-4-carboxylic acid hydrochloride], the MIC is 0.2 mg/L in assay [1], 0.2 mg/L in assay [2], 1.56 mg/L in assay [3] and at most 0.0063 mg/L in assay [4] (setting [8]).
For `Cc1nnc(SCC2=C(C(=O)O)N3C(=O)C(NC(=O)C(=CBr)c4csc(N)n4)C3SC2)s1` (stereo not shown) [Example 26, 7-[2-Bromomethylene-2-(2-aminothiazol-4-yl)acetamido]-3-(2-methyl-1,3,4-thiadiazol-5-yl)thiomethy1-3-cephem-4-carboxylic acid], the MIC in assay [1] is 0.39 mg/L (≈ 0.678 µM); in assay [2] it was 0.1 mg/L (≈ 0.174 µM); in assay [3] it was 0.39 mg/L (≈ 0.678 µM); in assay [4] (setting [8]), at most 0.0063 mg/L.
For `NC(=O)Cn1nnnc1SCC1=C(C(=O)O)N2C(=O)C(NC(=O)C(=CCl)c3csc(N)n3)C2SC1` (single isomer, unassigned) [Example 29, sodium 7-[2-chloromethylene-2-(2-aminothiazol-4-yl)acetamido]-3-(1-carbamoylmethyl-1,2,3,4-tetrazol-5-yl)thiomethyl-3-cephem-4-carboxylate], the MIC in assay [5] (setting [9]) was 0.1 mg/L; in assay [6] (setting [10]) it was 0.78 mg/L.
For the compound `Cn1nc(O)c(=O)nc1SCC1=C(C(=O)O)N2C(=O)C(NC(=O)C(=CCl)c3csc(N)n3)C2SC1` (single isomer, unassigned) [Example 4, disodium 7-[2-chloromethylene-2-(2-aminothiazol-4-yl)acetamido]-3-(2,5-dihydro-6-hydroxy-2-methyl-5-oxo-as-triazin-3-yl)thiomethyl-3-cephem-4-carboxylate], the values for the MIC in assay [7], in assay [6] (setting [12]) and in assay [4] (setting [13]) were at most 0.006 mg/L, 0.78 mg/L and at most 0.006 mg/L, respectively.
With `Cn1nnnc1SCC1=C(C(=O)O)N2C(=O)C(NC(=O)C(=CCl)c3cnc(N)s3)C2SC1` (stereo not drawn) [Example 7, sodium 7-[2-chloromethylene-2-(2-aminothiazol-5-yl)acetamido]-3-(l-methyl-lH-tetrazol-5-yl)thiomethyl-3-cephem-4-carboxylate], the MIC in assay [7] worked out at 1.56 mg/L; in assay [6] (setting [12]) it was 0.39 mg/L; in assay [4] (setting [13]), 1.56 mg/L.
Consider `COC(=O)Cn1nnnc1SCC1=C(C(=O)O)N2C(=O)C(NC(=O)C(=CCl)c3csc(N)n3)C2SC1` (single isomer, unassigned) [Example 30, disodium 7-[2-chloromethylene-2-(2-aminothiazol-4-yl)acetamido]-3-(l-methoxycarbonylmethyl-1,2,3,4-tetrazol-5-yl)thiomethyl-3-cephem-4-carboxylate], for which the MIC was found to be 0.2 mg/L in assay [5] (setting [9]) and 0.78 mg/L in assay [6] (setting [10]).
Regarding `CSC=C(C(=O)NC1C(=O)N2C(C(=O)O)=C(CSc3nnnn3C)CSC12)c1csc(N)n1` (stereo not drawn) [Example 12, 7-[2-Methylmercaptomethylene-2-(2-aminothiazol-4-yl)-acetamido]-3-(l-methyl-lH-tetrazol-5-yl)thiomethyl-3-cephem-4-carboxylic acid], the MIC in assay [7] was at most 0.006 mg/L; in assay [6] (setting [12]) it was 1.56 mg/L (≈ 2.96 µM); in assay [4] (setting [13]) it was at most 0.006 mg/L.
In the case of `Nc1nc(C(=CCl)C(=O)NC2C(=O)N3C(C(=O)O)=C(CSc4cnns4)CSC23)cs1` (single isomer, unassigned) [Example 33, sodium 7-[2-chloromethylene-2-(2-aminothiazol-4-yl)acetamido]-3-(1,2,3-thiadiazol-5-yl)thiomethyl-3-cephem-4-carboxylate], the figures for the MIC in assay [5] (setting [9]), in assay [6] (setting [10]) and in assay [4] (setting [11]) were 0.2 mg/L, 0.1 mg/L and at most 0.00625 mg/L, respectively.
Regarding `CCSC=C(C(=O)NC1C(=O)N2C(C(=O)O)=C(CSc3nnnn3C)CSC12)c1csc(N)n1` (stereo not drawn) [Example 11, 7-[2-ethylmercaptomethylene-2-(2-aminothiazol-4-yl)-acetamido]-3-(l-methyl-lH-tetrazol-5-yl)thiomethyl-3-cephem-4-carboxylic acid], the “minimum inhibition concentration (MIC)” value in assay [7] was at most 0.006 mg/L; in assay [6] (setting [14]), 0.78 mg/L (≈ 1.44 µM); in assay [4] (setting [15]) it was at most 0.006 mg/L.
Consider “sodium 7-[2-chloromethylene-2-(2-aminothiazol-4-yl)-acetamido]-3-(2-hydroxycarbonylmethylthio-1,3,4-thiadia- zol-5-yl)thiomethyl-3-cephem-4-carboxylate [Example 35]”, for which the “minimum inhibition concentration (MIC)” value in assay [5] (Table 4, Salmonella typhimrium 901) was 0.78 mg/L; in assay [6] (Table 4, Staphylococcus aureus MS 353), 0.78 mg/L; in assay [4] (Table 4, Proteus morganii IFO 3848), at most 0.00625 mg/L.
Take `Nc1nc(C(=CI)C(=O)NC2C(=O)N3C(C(=O)O)=C(CSc4nncs4)CS[C@H]23)cs1` (single isomer, unassigned) [Example 37, 7-[2-Iodomethylene-2-(2-aminothiazol-4-yl)acetamido]-3-(1,3,4-thiadiazol-2-yl)thiomethyl-3-cephem-4-carboxylic acid]: the MIC in assay [5] (setting [9]) was 0.39 mg/L (≈ 0.641 µM); in assay [6] (setting [10]) it was 0.2 mg/L (≈ 0.329 µM); in assay [4] (setting [11]) it was at most 0.00313 mg/L.
Turning to `Cn1nnnc1SCC1=C(C(=O)O)N2C(=O)C(NC(=O)C(=CCl)c3ccccc3)C2SC1` (single isomer, unassigned) [Example 5, 7-(2-chloromethylenephenylacetamido)-3-(1-methyl-lH-tetrazol-5-yl)thiomethyl-3-cephem-4-carboxylic acid], in assay [7], the MIC is 0.78 mg/L (≈ 1.58 µM). In addition, the entries for the “minimum inhibition concentration (MIC)” value in assay [6] (setting [14]) and in assay [4] (setting [15]) were 0.05 mg/L (≈ 0.101 µM) and 0.78 mg/L (≈ 1.58 µM), respectively.
